# Measured values taken from patent publication US10899787B2, “Cytarabine prodrug nucleoside cyclic phosphate compound based on liverspecific delivery and use” (ZHEJIANG PALO ALTO PHARMACEUTICALS, INC., priority 2017, dated 2021).
# Target: T1, Recombinant human CYP3A4 enzyme (Homo sapiens, UniProt P08684)
# T1 construct: purchased BD company lot number 3100772
# Test: Evaluation of recombinant human CYP3A4 metabolism in vitro
# Assay type: in vitro ADME
# Conditions: for Elimination Rate in vitro: recombinant human CYP3A4 enzyme, test compound 100 nM, NADPH 2 mM, pH 7.4, samples at 1, 5, 10, 20, 30 min; for conversion rate relative to that of PA4102: recombinant human CYP3A4 enzyme in vitro, ratio to PA4102 (Table 4)
# Procedure: Example 12 Evaluation of Recombinant Human CYP3A4 Metabolism In Vitro
# Recombinant human CYP3A4 enzyme was purchased from BD company, lot number 3100772.
# Test compounds PA4101, PA4102, PA4103, PA4104, PA4105, PA4106, PA4107, PA4108, PA4109, PA4110 and PA4111 were synthesized by Zhejiang Palo Alto Pharmaceuticals, Inc., and dissolved in methanol (from Sinopharm Chemical Reagent Co., Ltd.) to prepare a storage solution of a concentration of 100 μM.
# Enzymatic reaction was carried out in 100 mM KH2PO4 buffer solution (pH 7.4), the concentration of the test compounds was 100 nM, the concentration of human liver microsomes was 0.1 nmol/ml, and NADPH concentration was 2 mM. The reaction was initiated by NADPH finally added, and after reaction for 1, 5, 10, 20, 30 min in a constant-temperature shaking water bath kettle, samples were taken, and 1.5 times of volume of methanol was immediately added to terminate the reaction.
# 3) Sample Processing and Analysis Method
# The centrifugation was carried out for 20 minutes at a maximum speed of 13,600 rpm using an Eppendorf tabletop centrifuge. Supernatant was taken, and after being blow-dried by a nitrogen blower, the supernatant was re-dissolved into a mobile phase A (0.1% formic acid v/v aqueous solution).
# Analytical column: Waters, Acquity UPLC HSS T3 column • Flow rate: 0.5 ml/min • Column temperature: 45° C.
# III Mass Spectrometry Condition
# An ion source was an electrospray ionization source (Turbo Ionspray); a positive ion mode; a capillary voltage was 3.0 kV; a temperature was 500° C.; a desolventizing airflow was 1000 L/h; and scan time, cone voltage, collision energy and ion response for quantitative analysis are shown in the following table (Table 3): […]
# T1 sequence (P08684 whole entry): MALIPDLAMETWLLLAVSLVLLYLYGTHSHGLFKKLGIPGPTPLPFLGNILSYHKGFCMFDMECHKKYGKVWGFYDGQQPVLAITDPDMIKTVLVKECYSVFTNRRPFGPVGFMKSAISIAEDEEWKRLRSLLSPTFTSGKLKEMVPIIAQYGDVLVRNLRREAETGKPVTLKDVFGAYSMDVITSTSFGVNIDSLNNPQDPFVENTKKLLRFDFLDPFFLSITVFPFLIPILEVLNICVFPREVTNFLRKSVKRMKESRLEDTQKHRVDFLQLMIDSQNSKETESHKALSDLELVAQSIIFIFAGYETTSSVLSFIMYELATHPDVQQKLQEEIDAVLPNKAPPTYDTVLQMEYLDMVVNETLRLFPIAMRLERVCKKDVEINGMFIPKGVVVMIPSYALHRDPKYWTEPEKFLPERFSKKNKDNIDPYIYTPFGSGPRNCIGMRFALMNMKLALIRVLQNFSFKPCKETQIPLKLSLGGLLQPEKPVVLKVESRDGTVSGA
Elimination Rate in vitro [ml/min/gprot],conversion rate relative to that of PA4102,Compound
3.26,,"Nc1ccn([C@@H]2O[C@H](COP3(=O)OCC[C@H](c4ccncc4)O3)[C@@H](O)[C@@H]2O)c(=O)n1 (some centres unmarked) [PA4102, reference compound]"
23.1,,Nc1ccn([C@@H]2O[C@H](COP3(=O)OCC[C@H](c4cc(Cl)cc(Cl)c4)O3)[C@@H](O)[C@@H]2O)c(=O)n1 (some centres unmarked) [PA4103]
5.79,,Nc1ccn([C@@H]2O[C@H](COP3(=O)OCC[C@H](c4ccc(F)c(Cl)c4)O3)[C@@H](O)[C@@H]2O)c(=O)n1 (some centres unmarked) [PA4105]
67.3,about 20.6 times,Nc1ccn([C@@H]2O[C@H](COP3(=O)OCC[C@H](c4cc(Cl)ccc4Cl)O3)[C@@H](O)[C@@H]2O)c(=O)n1 (some centres unmarked) [PA4109]
35.0,~10.7 times,Nc1ccn([C@@H]2O[C@H](COP3(=O)OCC[C@H](c4cc(Cl)ccc4F)O3)[C@@H](O)[C@@H]2O)c(=O)n1 (some centres unmarked) [PA4101]
8.28,,Nc1ccn([C@@H]2O[C@H](COP3(=O)OCC[C@H](c4cccc(Cl)c4F)O3)[C@@H](O)[C@@H]2O)c(=O)n1 (some centres unmarked) [PA4107]
23.6,~7.24 times,Nc1ccn([C@@H]2O[C@H](COP3(=O)OCC[C@H](c4cc(F)ccc4Cl)O3)[C@@H](O)[C@@H]2O)c(=O)n1 (some centres unmarked) [PA4108]
14.9,,Nc1ccn([C@@H]2O[C@H](COP3(=O)OCC[C@H](c4ccc(Cl)c(F)c4)O3)[C@@H](O)[C@@H]2O)c(=O)n1 (some centres unmarked) [PA4106]
9.55,,Nc1ccn([C@@H]2O[C@H](COP3(=O)OCC[C@H](c4cccc(F)c4F)O3)[C@@H](O)[C@@H]2O)c(=O)n1 (some centres unmarked) [PA4111]
2.93,,Nc1ccn([C@@H]2O[C@H](COP3(=O)OCC[C@H](c4cc(F)cc(F)c4)O3)[C@@H](O)[C@@H]2O)c(=O)n1 (some centres unmarked) [PA4104]
8.37,,Nc1ccn([C@@H]2O[C@H](COP3(=O)OCC[C@H](c4cc(F)ccc4F)O3)[C@@H](O)[C@@H]2O)c(=O)n1 (some centres unmarked) [PA4110]
